The assay concerns B6C3F1 mice, ip Sarcoma M5076, median survival T/C. Nature of the assay: NCI In Vivo Anticancer Drug Screen. Data for tumor model Sarcoma M5076 (intraperitoneal) in B6C3F1 mice. Particulars: endpoint: median survival time, higher = longer survival. A digest of the protocol:
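Tumour cells were transplanted into mice, compound or vehicle was given, survival of both groups was followed, and the treated figure was expressed over the control figure.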

Setting [1] is: dose: 12.5 mg/kg/injection, schedule: Q04DX004 (ip), vehicle: saline.
Where [2] appears, read: dose: 25.0 mg/kg/injection, schedule: Q04DX004 (ip), vehicle: saline.
Setting [3] is: dose: 50.0 mg/kg/injection, schedule: Q04DX004 (ip), vehicle: saline.
Setting [4] is: dose: 100.0 mg/kg/injection, schedule: Q04DX004 (ip), vehicle: saline.
The mark [5] stands for this setting: dose: 50.0 mg/kg/injection, schedule: Q04DX004 (ip), vehicle: saline with Tween-80.
Setting [6] is: dose: 100.0 mg/kg/injection, schedule: Q04DX004 (ip), vehicle: saline with Tween-80.
Setting [7] is: dose: 200.0 mg/kg/injection, schedule: Q04DX004 (ip), vehicle: saline with Tween-80.
Where [8] appears, read: dose: 400.0 mg/kg/injection, schedule: Q04DX004 (ip), vehicle: saline with Tween-80.
[9] abbreviates: dose: 25.0 mg/kg/injection, schedule: Q04DX004 (ip), vehicle: saline with Tween-80.
Setting [10] is: dose: 50.0 mg/kg/injection, schedule: Q04DX004 (ip), vehicle: Klucel (hydroxypropylcellulose) (HPC).
Setting [11] is: dose: 100.0 mg/kg/injection, schedule: Q04DX004 (ip), vehicle: Klucel (hydroxypropylcellulose) (HPC).
[12] abbreviates: dose: 200.0 mg/kg/injection, schedule: Q04DX004 (ip), vehicle: Klucel (hydroxypropylcellulose) (HPC).
[13] abbreviates: dose: 400.0 mg/kg/injection, schedule: Q04DX004 (ip), vehicle: Klucel (hydroxypropylcellulose) (HPC).
The mark [14] stands for this setting: dose: 200.0 mg/kg/injection, schedule: Q04DX004 (ip), vehicle: saline.
The mark [15] stands for this setting: dose: 25.0 mg/kg/injection, schedule: Q04DX004 (ip), vehicle: Klucel (hydroxypropylcellulose) (HPC).

The values below come from PubChem BioAssay AID292 (DTP/NCI, 2004).

Values joined by “and” are separate entries in the source; they are usually repeats but may differ in a detail not shown here. Identical values can stand only once. Toxic doses and inconclusive results are not listed.

Turning to `CC[C@](O)(C(=O)O)c1cc2n(c(=O)c1CO)Cc1cc3ccccc3nc1-2`, the T/C by setting is: (dose: 3.12 mg/kg/injection, schedule: Q04DX004 (ip), vehicle: saline) 115 % of control; (dose: 6.25 mg/kg/injection, schedule: Q04DX004 (ip), vehicle: saline) 115 % of control and 123 % of control; under setting [1], 119 % of control; under setting [2], 123 % of control; under setting [3], 114 % of control.
Regarding `Cc1ncc(CO)c(CO)c1OCC(O)CN1CCN(C(=O)c2ccccc2)CC1` (centres undefined), the T/C is 103 % of control under setting [2], 103 % of control under setting [3] and 99 % of control under setting [4].
As to `O=C1CCC(=O)N1CO`, the T/C is 93 % of control under setting [5]; 101 % of control under setting [6]; 87 % of control under setting [7]; 100 % of control under setting [8]; 97 % of control (dose: 800.0 mg/kg/injection, schedule: Q04DX004 (ip), vehicle: saline with Tween-80).
As for `C[CH2][Sn]([Cl])([CH2]C)[c]1cc[c]([Sn]([Cl])([CH2]C)[CH2]C)cc1`, the T/C reads like this: (dose: 0.06 mg/kg/injection, schedule: Q04DX004 (ip), vehicle: Klucel (hydroxypropylcellulose) (HPC)) 102 % of control; (dose: 0.12 mg/kg/injection, schedule: Q04DX004 (ip), vehicle: Klucel (hydroxypropylcellulose) (HPC)) 89 % of control; (dose: 0.25 mg/kg/injection, schedule: Q04DX004 (ip), vehicle: Klucel (hydroxypropylcellulose) (HPC)) 91 % of control; (dose: 0.5 mg/kg/injection, schedule: Q04DX004 (ip), vehicle: Klucel (hydroxypropylcellulose) (HPC)) 101 % of control; (dose: 90.0 micrograms/kg/injection, schedule: Q04DX004 (ip), vehicle: Klucel (hydroxypropylcellulose) (HPC)) 106 % of control; (dose: 150.0 micrograms/kg/injection, schedule: Q04DX004 (ip), vehicle: Klucel (hydroxypropylcellulose) (HPC)) 96 % of control. In addition, the T/C (dose: 250.0 micrograms/kg/injection, schedule: Q04DX004 (ip), vehicle: Klucel (hydroxypropylcellulose) (HPC)) was 100 % of control; the T/C (dose: 416.7 micrograms/kg/injection, schedule: Q04DX004 (ip), vehicle: Klucel (hydroxypropylcellulose) (HPC)) was 98 % of control; the T/C (dose: 694.5 micrograms/kg/injection, schedule: Q04DX004 (ip), vehicle: Klucel (hydroxypropylcellulose) (HPC)) is 107 % of control.
Take `S=C1CCCCN1`: the T/C reads like this: (dose: 6.25 mg/kg/injection, schedule: Q04DX004 (ip), vehicle: distilled water + alcohol) 101 % of control; (dose: 12.5 mg/kg/injection, schedule: Q04DX004 (ip), vehicle: distilled water + alcohol) 99 % of control; (dose: 25.0 mg/kg/injection, schedule: Q04DX004 (ip), vehicle: distilled water + alcohol) 98 % of control and 103 % of control; (dose: 50.0 mg/kg/injection, schedule: Q04DX004 (ip), vehicle: distilled water + alcohol) 92 % of control and 94 % of control and 100 % of control; (dose: 100.0 mg/kg/injection, schedule: Q04DX004 (ip), vehicle: distilled water + alcohol) 88 % of control and 100 % of control (2×).
Take `COC(=O)c1ccc(OCc2nc3ccccc3[nH]2)cc1`: the T/C was 95 % of control under setting [9]; 100 % of control under setting [5]; 95 % of control under setting [6]; 89 % of control under setting [7]; 90 % of control under setting [8].
For the compound `O=c1[nH]c(=O)n(C2OC(CF)C(O)C2O)cc1N1CCOCC1` (centres undefined), the T/C runs as follows: (dose: 17.5 mg/kg/injection, schedule: Q04DX004 (ip), vehicle: saline) 100 % of control; (dose: 35.0 mg/kg/injection, schedule: Q04DX004 (ip), vehicle: saline) 104 % of control; (dose: 70.0 mg/kg/injection, schedule: Q04DX004 (ip), vehicle: saline) 97 % of control; (dose: 140.0 mg/kg/injection, schedule: Q04DX004 (ip), vehicle: saline) 104 % of control; (dose: 280.0 mg/kg/injection, schedule: Q04DX004 (ip), vehicle: saline) 102 % of control.
On to `Clc1cccc(N(C2=NCCS2)C2=NCCS2)c1`, for which the T/C under setting [10] was 107 % of control; the T/C under setting [11] was 101 % of control; the T/C under setting [12] was 101 % of control; the T/C under setting [13] was 96 % of control; the T/C (dose: 800.0 mg/kg/injection, schedule: Q04DX004 (ip), vehicle: Klucel (hydroxypropylcellulose) (HPC)) is 92 % of control.
In the case of `NC(=O)c1cc(Cl)nc2nc(Cl)nc(N)c12`, the T/C was 100 % of control under setting [9]; 97 % of control under setting [5]; 99 % of control under setting [6]; 96 % of control under setting [7]; 93 % of control under setting [8].
Take `Cc1ccc(C(=Nc2ccccc2)N=P(c2ccccc2)(c2ccccc2)c2ccccc2)cc1`: the T/C under setting [9] is 106 % of control and the T/C under setting [5] is 93 % of control.
As to `CC1C(C#N)C(=O)NC(=O)C1C#N` (centres undefined), the T/C runs as follows: under setting [3], 100 % of control; under setting [4], 104 % of control; under setting [14], 97 % of control; (dose: 400.0 mg/kg/injection, schedule: Q04DX004 (ip), vehicle: saline) 97 % of control; (dose: 800.0 mg/kg/injection, schedule: Q04DX004 (ip), vehicle: saline) 102 % of control.
On to `CN(C)N=Nc1ccccc1`, for which the T/C (dose: 12.5 mg/kg/injection, schedule: Q04DX004 (ip), vehicle: Klucel (hydroxypropylcellulose) (HPC)) was 113 % of control; the T/C under setting [15] was 159 % of control; the T/C under setting [10] was 187 % of control; the T/C under setting [11] was 156 % of control.
As for `CCOC(=O)C(C(=O)OCC)=C(N)C(Cl)(Cl)Cl`, the T/C under setting [15] was 107 % of control; the T/C under setting [10] was 103 % of control; the T/C under setting [11] is 101 % of control; the T/C under setting [12] is 103 % of control; the T/C under setting [13] is 96 % of control.
In the case of `N#CC1C(=O)NC(=S)NC1c1ccco1` (centres undefined), the T/C is, setting by setting: under setting [10], 98 % of control; under setting [11], 100 % of control.
Regarding `CC(=O)C(Cl)C(=O)c1c(C)[nH]n(-c2ccccc2)c1=O` (centres undefined), the T/C is 99 % of control under setting [10], 113 % of control under setting [11] and 92 % of control under setting [12].
`CCc1c(C)c(SC)n(C)c(=O)c1C#N`: the T/C reads like this: under setting [5], 111 % of control; under setting [6], 111 % of control; under setting [7], 111 % of control; under setting [8], 96 % of control.
With `CCN(CC)C(=Nc1ccc(Cl)c(Cl)c1)SC(NC=O)=C(Cl)Cl`, the T/C is 104 % of control (dose: 50.0 mg/kg/injection, schedule: Q04DX004 (ip), vehicle: Klucel + Tween-80); 97 % of control (dose: 100.0 mg/kg/injection, schedule: Q04DX004 (ip), vehicle: Klucel + Tween-80); 91 % of control (dose: 200.0 mg/kg/injection, schedule: Q04DX004 (ip), vehicle: Klucel + Tween-80).
`NC(=O)c1c[nH]n(C2OC(CO)C(O)C2O)c1=O` (centres undefined): the T/C was 99 % of control under setting [1]; 98 % of control under setting [2]; 105 % of control under setting [3]; 98 % of control under setting [4]; 101 % of control under setting [14].
Regarding `CN=C(N)N/N=C(\C)c1ccc2sc3ccc(/C(C)=N/NC(N)=NC)cc3c2c1`, under setting [9], the T/C is 113 % of control.
As to `CCOC(=O)NC1CCc2cc(OC)c(OC)c(OC)c2-c2ccc(OC)c(=O)cc21` (centres undefined), the T/C (dose: 2.5 mg/kg/injection, schedule: Q04DX004 (ip), vehicle: Klucel (hydroxypropylcellulose) (HPC)) was 150 % of control; the T/C (dose: 5.0 mg/kg/injection, schedule: Q04DX004 (ip), vehicle: Klucel (hydroxypropylcellulose) (HPC)) is 183 % of control; the T/C (dose: 10.0 mg/kg/injection, schedule: Q04DX004 (ip), vehicle: Klucel (hydroxypropylcellulose) (HPC)) is 176 % of control; the T/C (dose: 20.0 mg/kg/injection, schedule: Q04DX004 (ip), vehicle: Klucel (hydroxypropylcellulose) (HPC)) was 161 % of control and 178 % of control.
Turning to `CS(=O)(=O)OCCCNCCCOS(C)(=O)=O`, the T/C is, setting by setting: (dose: 10.0 mg/kg/injection, schedule: Q04DX005 (ip), vehicle: saline) 150 % of control; (dose: 20.0 mg/kg/injection, schedule: Q04DX005 (ip), vehicle: saline) 185 % of control; (dose: 40.0 mg/kg/injection, schedule: Q04DX005 (ip), vehicle: saline) 319 % of control; (dose: 80.0 mg/kg/injection, schedule: Q04DX005 (ip), vehicle: saline) 319 % of control.
In the case of `Cc1c(/C=C/C(=O)O)no[n+]1[O-]`, the T/C reads like this: under setting [9], 100 % of control; under setting [5], 101 % of control; under setting [6], 101 % of control; under setting [7], 101 % of control; under setting [8], 93 % of control.
